“And” between values parts separate entries of the source, which are not always exact repeats. Equal values may be shown once. Read-outs that look alike come from different tables or passages of the source.
What was measured:
Assay type in all cases: cell-based
[1] = system: T. b. rhod.; assay: In vitro counter screen, T. b. rhod.
Procedure: (§1) In vitro counter screens were performed to confirm our findings.

[2] = system: T. cruzi; assay: In vitro counter screen, T. cruzi; settings: Trypanosoma cruzi
Procedure: (§2) A high-throughput screen of small molecules was performed in duplicate in the recombinant Tulahuen strain of T. cruzi stably expressing a beta-galactosidase reporter gene. Trypomastogote-stage parasites were co-cultured with mouse fibroblast NIH/3T3 host cells, (Buckner F S, Verlinde C L, La Flamme A C, Van Voorhis W C. Efficient technique for screening drugs for activity against Trypanosoma cruzi using parasites expressing beta-galactosidase. Antimicrob Agents Chemother. 1996; 40(11): 2592-2597). Signal was normalized to neutral (DMSO) controls, and a 75% inhibition cutoff was used to define a hit. Compounds initially designated as hits were retested in dose in the primary assay to confirm their inhibitory activity. In parallel, compounds were tested in toxicity assays against NIH/3T3 host cells to determine if these compounds were cytotoxic to mammalian cells and thus, false positives. Compounds that reduced the viability of NIH/3T3 cells were excluded as viable hits. A subset of hits were then tested in a similar infection assay with the Tulahuen strain of T. cruzi infecting murine L-6 cells and the intracellular T. cruzi immunofluorescence assay described below.
as §1

[3] = In vitro counter screen, cytotoxicity L6; settings: murine
[4] = system: P. falc. K1; assay: In vitro counter screen, P. falc. K1
Procedure: as §1

[5] = system: L. don. axen.; assay: In vitro counter screen, L. don. axen.
Procedure: as §1

[6] = system: T. cruzi; assay: T. cruzi inhibition assay (beta-galactosidase T. cruzi co-cultured with NIH/3T3 host cells); settings: Trypanosoma cruzi, NIH3T3; Table 2
Procedure: as §2
1. T. cruzi Inhibition Assay
98% DMEM, Phenol Red, 2% FBS, and 1% PSG were mixed and filtered through a 0.2 microns membrane. The cells were kept at 4° C., then warmed up to 37° C. in a water bath before use.
Gal-Screen. Using a Gal-Screen base kit, Buffer B (Catalog no. T2361) was mixed with 1:25 substrate (Catalog no. T2359).
NIH/3T3 cells were cultivated in DMEM supplemented with 10% FBS and 1% PSG in T175 in 50 mL total of medium.
Parasite Culture: T. cruzi β-gal (Tc): T. cruzi β-gal were cultivated in DMEM supplemented with 2% FBS and 1% PSG in T175 flasks with vented caps in 50 mL total of medium.
2. Growth Inhibition Assay for HTS (384-Well Plates)
The medium was warmed up with 2% FBS/DMEM. The parasites were harvested in 50-mL tubes, and spun for 10 minutes at 2200 rpm. Approximately 15 mL of media was aspirated, and the samples were incubated for 3-5 h. The NIH/3T3 cells were trypsinized (refer to cell culture protocol). When the NIH/3T3 cells were detached, the cells were harvested in DMEM, 2% FBS, and 1% PSG, then counted using the Nexcelom cellometer. The cells were diluted to 166,667 cells/mL, then added to a flask and plated 5,000 cells/30 μL per well using a standard cassette multiwall drob Combi. The cells were incubated for 3 h, then T. cruzi cells were counted, diluted to 0.166 million cells/mL, and transferred to a 2-liter flask. Then, […] compounds/DMSO were pinned to each well with NIH/3T3 cells. Next, 30 μL/well of parasites (5000 T. cruzi) were added with a standard cassette multiwall drop Combi on slow speed, and incubated for 4 days (or a minimum of 90 h). Gal-Screen was prepared, 30 μL per well were dispensed in a 384-well plate, incubated for 60 minutes, and the luminescence was read using Envision (Perkin-Elmer) at 0.1 sec/well.

[7] = read-out: T. b. rhod. (IC50, ug/mL)
[8] = same result as ug/mL, in uM, read-out: T. b. rhod (IC50 uM)
[9] = read-out: T. cruzi IC50 (ug/mL)
[10] = same result as ug/mL, in uM, read-out: P. falc. K1 (IC50 uM)
[11] = same result as ug/mL, in uM, read-out: L. don. Axen (IC50 uM)

## C[C@H](CO)N1C[C@H](C)[C@H](CN(C)Cc2ccccc2)Oc2c(NC(=O)c3ccncc3)cccc2C1=O [Compound 1]
[1]; [7]
  IC50: 75.4 µg/mL
[1]; [8]
  IC50: 150 µM
[2]; read-out: T. cruzi (IC50 uM)
  IC50: 1.24 µM
[2]; [9]
  IC50: 0.622 µg/mL
[3]
  IC50: > 199 µM and > 100 µg/mL
[4]; read-out: P. falc. K1 IC50
  IC50: 20.6 µg/mL
[4]; [10]
  IC50: 41 µM
[5]; read-out: L. don. axen. IC50
  IC50: > 100 µg/mL
[5]; [11]
  IC50: > 199 µM

## COc1ccc(CN(C)C[C@@H]2Oc3c(NC(=O)c4ccncc4)cccc3C(=O)N([C@H](C)CO)C[C@H]2C)cc1 [Compound 5]
[1]; [7]
  IC50: 20.2 µg/mL
[1]; [8]
  IC50: 37.9 µM
[2]; read-out: T. cruzi (IC50 uM)
  IC50: 1.31 µM
[2]; [9]
  IC50: 0.699 µg/mL
[3]
  IC50: > 188 µM and > 100 µg/mL
[4]; read-out: P. falc. K1 IC50
  IC50: 7.39 µg/mL
[4]; [10]
  IC50: 13.9 µM
[5]; read-out: L. don. axen. IC50
  IC50: > 100 µg/mL
[5]; [11]
  IC50: > 188 µM

## C[C@@H]1CN([C@@H](C)CO)C(=O)c2cccc(NC(=O)c3ccncc3)c2O[C@H]1CN(C)Cc1ccc(-c2ccccc2)cc1 [Compound 7]
[1]; [7]
  IC50: 0.729 µg/mL
[1]; [8]
  IC50: 1.26 µM
[2]; read-out: T. cruzi (IC50 uM)
  IC50: 0.123 µM
[2]; [9]
  IC50: 0.071 µg/mL
[3]
  IC50: 23.3 µM and 13.5 µg/mL
[4]; read-out: P. falc. K1 IC50
  IC50: 1.2 µg/mL
[4]; [10]
  IC50: 2.07 µM
[5]; read-out: L. don. axen. IC50
  IC50: 13.3 µg/mL
[5]; [11]
  IC50: 23 µM

## C[C@@H]1CN([C@H](C)CO)C(=O)c2cccc(NC(=O)c3ccncc3)c2O[C@H]1CN(C)Cc1ccc2c(c1)OCO2 [Compound 8]
[1]; [8]
  IC50: 12.5 µM
[2]; read-out: T. cruzi (IC50 uM)
  IC50: 0.143 µM
[3]; L6 cells, same result as ug/mL, in uM, read-out: cytotox, (IC50 uM)
  IC50: > 183 µM
[4]; [10]
  IC50: 10.6 µM
[5]; read-out: L. don. Axen (IC50 uM)
  IC50: > 183 µM

## C[C@@H]1CN([C@H](C)CO)C(=O)c2cccc(NC(=O)c3ccncc3)c2O[C@H]1CN(C)Cc1ccccc1 [Compound 9]
[1]; [7]
  IC50: 35.1 µg/mL
[1]; [8]
  IC50: 69.8 µM
[2]; read-out: T. cruzi (IC50 uM)
  IC50: 0.304 µM
[2]; [9]
  IC50: 0.153 µg/mL
[3]
  IC50: > 199 µM and > 100 µg/mL
[4]; read-out: P. falc. K1 IC50
  IC50: 4.83 µg/mL
[4]; [10]
  IC50: 9.61 µM
[5]; read-out: L. don. axen. IC50
  IC50: 84.4 µg/mL
[5]; [11]
  IC50: 168 µM

## C[C@H](CO)N1C[C@H](C)[C@@H](CN(C)Cc2ccc(C(F)(F)F)cc2)Oc2c(NC(=O)c3ccncc3)cccc2C1=O [Compound 13]
[1]; [7]
  IC50: 3.49 µg/mL
[1]; [8]
  IC50: 6.12 µM
[2]; read-out: T. cruzi (IC50 uM)
  IC50: 0.875 µM
[2]; [9]
  IC50: 0.499 µg/mL
[3]
  IC50: 79.7 µM and 45.5 µg/mL
[4]; read-out: P. falc. K1 IC50
  IC50: 2.95 µg/mL
[4]; [10]
  IC50: 5.17 µM
[5]; read-out: L. don. axen. IC50
  IC50: 16.3 µg/mL
[5]; [11]
  IC50: 28.6 µM

## C[C@H]1CN([C@@H](C)CO)C(=O)c2cccc(NC(=O)c3ccncc3)c2O[C@H]1CN(C)Cc1ccccc1 [Compound 17]
[1]; [7]
  IC50: 6.14 µg/mL
[1]; [8]
  IC50: 12.2 µM
[2]; read-out: T. cruzi (IC50 uM)
  IC50: 0.39 µM
[2]; [9]
  IC50: 0.196 µg/mL
[3]
  IC50: > 199 µM and > 100 µg/mL
[4]; read-out: P. falc. K1 IC50
  IC50: 5.64 µg/mL
[4]; [10]
  IC50: 11.2 µM
[5]; read-out: L. don. axen. IC50
  IC50: > 100 µg/mL
[5]; [11]
  IC50: > 199 µM

## C[C@H]1CN([C@@H](C)CO)C(=O)c2cccc(NC(=O)c3ccncc3)c2O[C@H]1CN(C)Cc1ccc(-c2ccccc2)cc1 [Compound 20]
[1]; [7]
  IC50: 6.41 µg/mL
[1]; [8]
  IC50: 11.1 µM
[2]; read-out: T. cruzi (IC50 uM)
  IC50: 0.394 µM
[2]; [9]
  IC50: 0.228 µg/mL
[3]
  IC50: 30.2 µM and 17.5 µg/mL
[4]; read-out: P. falc. K1 IC50
  IC50: 1.14 µg/mL
[4]; [10]
  IC50: 1.97 µM
[5]; read-out: L. don. axen. IC50
  IC50: 6.47 µg/mL
[5]; [11]
  IC50: 11.2 µM

## C[C@@H]1CN([C@@H](C)CO)C(=O)c2cccc(NC(=O)c3ccncc3)c2O[C@H]1CN(C)Cc1ccc(Oc2ccccc2)cc1 [Compound 21]
[6]
  IC50: < 0.0026 µM

## C[C@@H](CO)N1CC[C@H](CN(C)Cc2cccc(Cl)c2)Oc2c(NC(=O)c3ccncc3)cccc2C1=O [Compound 22]
[6]
  IC50: < 0.0026 µM

## C[C@@H]1CN([C@@H](C)CO)C(=O)c2cccc(NC(=O)c3ccncc3)c2O[C@H]1CN(C)C [Compound 23]
[6]
  IC50: > 10 µM

## C[C@H](CO)N1C[C@H](C)[C@@H](CN(C)Cc2ccc(Oc3ccccc3)cc2)Oc2c(NC(=O)c3ccncc3)cccc2C1=O [Compound 24]
[6]
  IC50: < 0.0026 µM

## C[C@@H]1CN([C@@H](C)CO)C(=O)c2cc(Br)cnc2O[C@H]1CN(C)Cc1ccc2c(c1)OCO2 [Compound 25]
[6]
  IC50: > 10 µM

## C[C@@H]1CN([C@@H](C)CO)C(=O)c2cccc(NC(=O)c3ccncc3)c2O[C@H]1CN(C)Cc1ccccc1Cl [Compound 26]
[6]
  IC50: 0.0039 µM

## C[C@@H]1CN([C@H](C)CO)C(=O)c2cccc(NC(=O)c3ccncc3)c2O[C@H]1CN(C)Cc1ccc2c(c1)OCO2 [Compound 27]
[6]
  IC50: 0.00148 µM

## C[C@@H]1CN([C@H](C)CO)C(=O)c2cccc(NC(=O)c3ccncc3)c2O[C@@H]1CN(C)Cc1ccc(Oc2ccccc2)cc1 [Compound 28]
[6]
  IC50: 0.0426 µM

## C[C@H]1CN([C@@H](C)CO)C(=O)c2cccc(NC(=O)c3ccncc3)c2O[C@H]1CN(C)Cc1ccc(Oc2ccccc2)cc1 [Compound 29]
[6]
  IC50: < 0.0026 µM

## C[C@@H]1CN([C@@H](C)CO)C(=O)c2cccc(NC(=O)c3ccncc3)c2O[C@H]1CN(C)Cc1ccc(Cl)cc1 [Compound 30]
[6]
  IC50: < 0.0026 µM

## C[C@@H]1CN([C@@H](C)CO)C(=O)c2cc(-c3ccncc3)cnc2O[C@H]1CN(C)Cc1ccc(Oc2ccccc2)cc1 [Compound 31]
[6]
  IC50: 1.28 µM

## C[C@@H]1CN([C@@H](C)CO)C(=O)c2cccc(NC(=O)c3ccncc3)c2O[C@@H]1CN(C)Cc1ccc(Oc2ccccc2)cc1 [Compound 32]
[6]
  IC50: 0.00434 µM

## C[C@@H]1CN([C@@H](C)CO)C(=O)c2cc(-c3cncnc3)cnc2O[C@H]1CN(C)Cc1ccc(Oc2ccccc2)cc1 [Compound 33]
[6]
  IC50: > 10 µM

## CC(C)N1C[C@@H](C)[C@H](CN(C)Cc2ccc(Oc3ccccc3)cc2)Oc2c(NC(=O)c3ccncc3)cccc2C1=O [Compound 34]
[6]
  IC50: < 0.0026 µM

## Cc1cc(C(=O)Nc2cccc3c2O[C@@H](CN(C)Cc2ccc(Oc4ccccc4)cc2)[C@H](C)CN([C@@H](C)CO)C3=O)n(C)n1 [Compound 35]
[6]
  IC50: > 10 µM

## C[C@@H]1CN([C@@H](C)CO)C(=O)c2cccc(NC(=O)c3ccncc3)c2O[C@H]1CN(C)Cc1ccc2c(c1)OCO2 [Compound 36]
[6]
  IC50: 0.00659 µM

## C[C@@H]1CN([C@H](C)CO)C(=O)c2cccc(NC(=O)c3ccncc3)c2O[C@H]1CN(C)Cc1ccccc1 [Compound 37]
[6]
  IC50: 0.0153 µM

## C[C@@H]1CN([C@@H](C)CO)C(=O)c2cccc(NC(=O)c3cnccn3)c2O[C@H]1CN(C)Cc1ccc(Oc2ccccc2)cc1 [Compound 38]
[6]
  IC50: 1 µM

## COc1ccc(CN(C)C[C@@H]2Oc3c(NC(=O)c4ccncc4)cccc3C(=O)N([C@@H](C)CO)C[C@H]2C)cc1 [Compound 39]
[6]
  IC50: 0.011 µM

## C[C@H]1CN([C@@H](C)CO)C(=O)c2cccc(NC(=O)c3ccncc3)c2O[C@@H]1CN(C)Cc1ccc(Oc2ccccc2)cc1 [Compound 40]
[6]
  IC50: < 0.0026 µM

## C[C@@H]1CN([C@H](C)CO)C(=O)c2cccc(NC(=O)c3ccncc3)c2O[C@H]1CN(C)Cc1ccc(Oc2ccccc2)cc1 [Compound 41]
[6]
  IC50: 0.000529 µM

## C[C@@H]1CN([C@@H](C)CO)C(=O)c2cccc(NC(=O)c3ccncc3)c2O[C@H]1CN(C)CC1CCCCC1 [Compound 42]
[6]
  IC50: 0.0421 µM

## C[C@@H]1CN([C@@H](C)CO)C(=O)c2cc(-c3cccnc3)cnc2O[C@H]1CN(C)Cc1ccc(Oc2ccccc2)cc1 [Compound 43]
[6]
  IC50: 9.27 µM

Source: patent US20140045860A1, “SMALL MOLECULE INHIBITORS FOR TREATING PARASITIC INFECTIONS” (NEW YORK UNIVERSITY, priority 2011, published 2014)
